Measured values: article PMC10419174, “WR1065 conjugated to thiol-PEG polymers as novel anticancer prodrugs: broad spectrum efficacy, synergism, and drug resistance reversal” (Frontiers in Oncology, 2023)
Where “and” joins values, the source holds several entries; their conditions need not be identical. Equal values may be shown once. Read-outs that look alike come from different tables or passages of the source. Marks after values point to notes of the source that are not given here.

How the values were obtained:
A549 NSCLC cells = assay: cells; conditions: for GI50 / IC50 / LC99 / TGI: drug alone, 48 h
Protocol: (§1) The percentage of growth inhibition was calculated as follows: […]

Prostate DU145 cells = assay: cells
Protocol: as §1

Prostate PC3 cells = assay: cells
Protocol: as §1

Ovary SKOV3 cells = assay: cells; conditions: for Fold increase in efficacy: drug alone ÷ drug in 4SP65-DDP combination
Protocol: as §1

NCI-H1437 NSCLC cells = test system: NCI-H1437 NSCLC cells
Protocol: as §1

NCI-H460 NSCLC cells = conditions: for Fold increase in efficacy: drug alone ÷ drug in 4SP65-DDP combination
Source text: To test anticancer effectiveness of individual drugs or drug combinations, the CyQUANT®-NF proliferation assay was used with a plate reader (i) to generate standard curves for cell numbers for each cell line, (ii) to measure the starting cell numbers at initiation of drug treatment, and (iii) to obtain fluorescence readings from cells in 96-well plates for comparisons to a standard curve for the relevant cancer cell line and quantifying cell viability after drug treatments. […] Trypan blue exclusion was used to estimate cell numbers in a few pilot experiments and thereafter was applied to confirm very low viable cell numbers and cell death.
A series of experiments was conducted to determine the relative efficacy of 4SP65, 1LP65, and amifostine as single agents in the same human cancer cell lines.
Five metrics were calculated and used to characterize the shape of the dose-response curve following exposure to a single test agent. Using cell numbers based on fluorescence measurements and standard curves, the percentage growth was calculated at each drug concentration level. The percentage of growth inhibition was calculated as follows:
where Tz = cell numbers or fluorescence counts at time xero, C = vehicle-exposed control cell numbers at the end of the assessment time period, and Ti = test agent-exposed cell numbers or fluorescence counts at each drug concentration. […] The LC50/99 was calculated using Equation 2 = -50 and Eq. 2 = -99, respectively. […] For NHMECs, the relationships between drug exposure levels and fluorescence units were used to define dose-response metrics. The selectivity index values for individual drugs were calculated using IC50 levels in NHMECs divided by the IC50 value for each cancer cell line. Statistical comparisons of differences in individual dose-response metrics between drug treatments and cell lines were conducted using Student’s t-test, with P-values <0.05 considered significant.
Relative cell growth inhibition values for differing levels of each drug alone and in combination were input into SynergyFinder to generate dose-response curves for each drug alone and to produce a dose-response matrix. The dose-response matrix data then were used in generating a two-dimension heatmap and three-dimension volcano plot to visualize the distribution of areas of differing degrees of synergism and to calculate average and maximum synergy scores in selected human cancer cell lines. The expected drug combination responses were calculated using both the Highest Single Agent (HSA) model and the Zero interaction potency (ZIP) model.

[1] = 4SP65/gefitinib study, ND = not definable, highest concentration in parentheses
[2] = 48-h treatment, amifostine ND = not definable up to 500 µM
[3] = drug alone, 48 h, 4SP65/cisplatin study
[4] = drug alone, 48 h, 4SP65/cisplatin study, ND = not definable, highest concentration in parentheses

## 4-star-PEG-S-S-WR1065 [4SP65]
A549 NSCLC cells; drug alone ÷ drug in 4SP65-DDP combination, at IC50
  Fold increase in efficacy: 2.2* fold
A549 NSCLC cells; drug alone ÷ drug in 4SP65-DDP combination, at LC50
  Fold increase in efficacy: 1.9* fold
A549 NSCLC cells; drug alone ÷ drug in 4SP65-DDP combination, at LC99
  Fold increase in efficacy: 1.9* fold
A549 NSCLC cells; drug alone ÷ drug in 4SP65-DDP combination, at TGI
  Fold increase in efficacy: 1.9* fold
A549 NSCLC cells; drug alone ÷ drug in 4SP65-GEF combination, at GI50
  Fold increase in efficacy: 1.5** fold
A549 NSCLC cells; drug alone ÷ drug in 4SP65-GEF combination, at IC50
  Fold increase in efficacy: 1.4** fold
A549 NSCLC cells; drug alone ÷ drug in 4SP65-GEF combination, at LC50, GoE = gain of effect
  Fold increase in efficacy: 1.1 (NS) fold
A549 NSCLC cells; drug alone ÷ drug in 4SP65-GEF combination, at LC99, GoE = gain of effect
  Fold increase in efficacy: 1.0 (NS) fold
A549 NSCLC cells; drug alone ÷ drug in 4SP65-GEF combination, at TGI, GoE = gain of effect
  Fold increase in efficacy: 1.5** fold
A549 NSCLC cells; 4SP65/cisplatin study
  GI50: 5.4 ± 2.5 µM
  IC50: 6.8 ± 1.3 µM
  LC99: 14.9 ± 3.8 µM
  TGI: 8.3 ± 1.5 µM
A549 NSCLC cells; 4SP65/gefitinib study
  GI50: 6 ± 0.6 µM
  IC50: 7.4 ± 0.7 µM
A549 NSCLC cells; [1]
  LC99: 12.3 ± 3.8 µM
  TGI: 11.3 ± 1.5 µM
Prostate DU145 cells
  CC50: 11.1 ± 0.1 µM
Prostate DU145 cells; [2]
  GI50: 7.5 ± 1.2 µM
  IC50: 8.5 ± 1 µM
  LC99: 12.0 ± 0.1 µM
  TGI: 9.5 ± 0.7 µM and 9.5 µM
Prostate DU145 cells; at GI50
  Dose reduction value 1LP65 ÷ 4SP65: 3.5 fold
  Dose reduction value AMF ÷ 4SP65: 17 fold
Prostate DU145 cells; at IC50
  Dose reduction value 1LP65 ÷ 4SP65: 3.5 fold
  Dose reduction value AMF ÷ 4SP65: 38 fold
Prostate DU145 cells; at LC50
  Dose reduction value 1LP65 ÷ 4SP65: 6.4 fold
Prostate DU145 cells; at LC99
  Dose reduction value 1LP65 ÷ 4SP65: 7.0 fold
Prostate DU145 cells; at TGI
  Dose reduction value 1LP65 ÷ 4SP65: 5.6 fold
Prostate PC3 cells
  CC50: 4.5 ± 0.6 µM
Prostate PC3 cells; [2]
  GI50: 0.7 ± 0.2 µM
  IC50: 2 ± 0.3 µM
  LC99: 5.8 ± 0.8 µM
  TGI: 2.1 ± 0.5 µM and 2.1 µM
Prostate PC3 cells; at GI50
  Dose reduction value 1LP65 ÷ 4SP65: 25 fold
  Dose reduction value AMF ÷ 4SP65: 58 fold
Prostate PC3 cells; at IC50
  Dose reduction value 1LP65 ÷ 4SP65: 19 fold
  Dose reduction value AMF ÷ 4SP65: 52 fold
Prostate PC3 cells; at LC50
  Dose reduction value 1LP65 ÷ 4SP65: 13 fold
Prostate PC3 cells; at LC99
  Dose reduction value 1LP65 ÷ 4SP65: 15 fold
Prostate PC3 cells; at TGI
  Dose reduction value 1LP65 ÷ 4SP65: 19 fold
  Dose reduction value AMF ÷ 4SP65: 143 fold
Ovary SKOV3 cells; [2]
  GI50: 4 ± 0.8 µM
  IC50: 5.1 ± 0.9 µM
  LC99: 10.5 ± 1.5 µM
  TGI: 6.8 ± 0.9 µM and 6.8 µM
Ovary SKOV3 cells; TP53-null SKOV3 cells
  fold more effective as a cytostatic agent than PRIMA-1 or APR-246: 3.3- to 16 fold
Ovary SKOV3 cells; at GI50
  Dose reduction value 1LP65 ÷ 4SP65: 10 fold
  Dose reduction value AMF ÷ 4SP65: 20 fold
  Fold increase in efficacy: 1.5** fold
Ovary SKOV3 cells; at IC50
  Dose reduction value 1LP65 ÷ 4SP65: 8.9 fold
  Dose reduction value AMF ÷ 4SP65: 58 fold
  Fold increase in efficacy: 1.8** fold
Ovary SKOV3 cells; at LC50
  Dose reduction value 1LP65 ÷ 4SP65: 7.5 fold
Ovary SKOV3 cells; at LC99
  Dose reduction value 1LP65 ÷ 4SP65: 9.4 fold
Ovary SKOV3 cells; at TGI
  Dose reduction value 1LP65 ÷ 4SP65: 7.4 fold
Ovary SKOV3 cells; at LC50, GoE = gain of effect
  Fold increase in efficacy: 1.3** fold
Ovary SKOV3 cells; at LC99, GoE = gain of effect
  Fold increase in efficacy: 1.3* fold
Ovary SKOV3 cells; at TGI, GoE = gain of effect
  Fold increase in efficacy: 1.5* fold
Ovary SKOV3 cells; [3]
  GI50: 4.3 ± 1 µM
  IC50: 5.2 ± 1 µM
Ovary SKOV3 cells; [4]
  LC99: 10.0 ± 0.8 µM
  TGI: 7.3 ± 0.8 µM
NCI-H1437 NSCLC cells
  CC50: 19.6 ± 0.7 µM
NCI-H1437 NSCLC cells; [2]
  GI50: 10.6 ± 2 µM
  IC50: 12.5 ± 2.6 µM
  LC99: 21.1 ± 0.2 µM
  TGI: 16.3 ± 1.9 µM
NCI-H1437 NSCLC cells; at GI50
  Dose reduction value 1LP65 ÷ 4SP65: 6.5 fold
NCI-H1437 NSCLC cells; at IC50
  Dose reduction value 1LP65 ÷ 4SP65: 6.0 fold
NCI-H1437 NSCLC cells; at LC50
  Dose reduction value 1LP65 ÷ 4SP65: 8.0 fold
NCI-H1437 NSCLC cells; at LC99
  Dose reduction value 1LP65 ÷ 4SP65: 11 fold
NCI-H1437 NSCLC cells; at TGI
  Dose reduction value 1LP65 ÷ 4SP65: 6.3 fold
NCI-H460 NSCLC cells; [2]
  GI50: 9.4 ± 1.5 µM
  IC50: 10.7 ± 1.3 µM
  LC99: 17.7 ± 0.8 µM
  TGI: 14.1 ± 1.5 µM and 14.1 µM
NCI-H460 NSCLC cells; at GI50
  Dose reduction value 1LP65 ÷ 4SP65: 8.3 fold
  Fold increase in efficacy: 36 fold
NCI-H460 NSCLC cells; at IC50
  Dose reduction value 1LP65 ÷ 4SP65: 8.4 fold
  Fold increase in efficacy: 20** fold
NCI-H460 NSCLC cells; at LC50
  Dose reduction value 1LP65 ÷ 4SP65: 9.5 fold
NCI-H460 NSCLC cells; at LC99
  Dose reduction value 1LP65 ÷ 4SP65: 10 fold
NCI-H460 NSCLC cells; at TGI
  Dose reduction value 1LP65 ÷ 4SP65: 8.8 fold
NCI-H460 NSCLC cells; at LC50, GoE = gain of effect
  Fold increase in efficacy: 5.3^c fold
NCI-H460 NSCLC cells; at LC99, GoE = gain of effect
  Fold increase in efficacy: 4.3^c fold
NCI-H460 NSCLC cells; at TGI, GoE = gain of effect
  Fold increase in efficacy: 7.4^c fold
NCI-H460 NSCLC cells; [3]
  GI50: 12.3 ± 1.1 µM
  IC50: 13.3 ± 1 µM
NCI-H460 NSCLC cells; [4]
  LC99: 18.2 ± 0.4 µM
  TGI: 16.9 ± 0.6 µM
